Experimental data: ChEMBL document CHEMBL6153083, “Synthesis, Structural Modification, and Antismall Cell Lung Cancer Activity of 3-Arylisoquinolines with Dual Inhibitory Activity on Topoisomerase I and II” (J Med Chem, 2025); call rule not given here

How the values were obtained:
SHP77 = experiment: Antiproliferative activity against human SHP77 cells incubated for 72 hrs; type: functional, cell-based; settings: SHP77, 72 h
NCI-H209 = experiment: Antiproliferative activity against human NCI-H209 cells incubated for 72 hrs; type: functional, cell-based; settings: NCI-H209, 72 h
[1] = Antiproliferative activity against human L02 cells incubated for 72 hrs; type: toxicity, cell-based
NCI-H146 = experiment: Antiproliferative activity against human NCI-H146 cells incubated for 72 hrs; type: functional, cell-based; settings: NCI-H146, 72 h
[2] = Antiproliferative activity against human NCI-H196 cells incubated for 72 hrs; type: functional, cell-based; settings: NCI-H196, 72 h
NCI-H82 = experiment: Antiproliferative activity against human NCI-H82 cells incubated for 72 hrs; type: functional, cell-based; settings: NCI-H82, 72 h
[3] = Antiproliferative activity against human BEAS-2B cells incubated for 72 hrs; type: toxicity, cell-based
NCI-H1048 [4] = experiment: Antiproliferative activity against human NCI-H1048 cells incubated for 72 hrs; type: functional, cell-based; settings: NCI-H1048, 72 h
NCI-H446 [5] = experiment: Antiproliferative activity against human NCI-H446 cells incubated for 72 hrs; type: functional, cell-based; settings: NCI-H446, 72 h
NCI-H446 [6] = experiment: Induction of early apoptosis in human NCI-H446 cells incubated for 48 hrs by Annexin V-FITC/PI staining based flow cytometry; type: functional, cell-based; settings: dose 1-8 µM
NCI-H446 [7] = experiment: Inhibition of cell invasion in human NCI-H446 cells incubated for 24 hrs by transwell assay; type: functional, cell-based
NCI-H1048 [8] = experiment: Induction of early apoptosis in human NCI-H1048 cells incubated for 48 hrs by Annexin V-FITC/PI staining based flow cytometry; type: functional, cell-based; settings: dose 1-8 µM
NCI-H446 [9] = experiment: Antitumor activity against human NCI-H446 cells xenografted in BALB/c nude mouse at 20 mg/kg, ip for 21 days relative to control; type: functional; settings: NCI-H446, 504 h, time 21 day, read-out: TGI
[10] = Toxicity in BALB/c nude mouse xenografted with human NCI-H446 cells assessed as body weight change at 20 mg/kg, ip for 21 days; type: organism-based; settings: in vivo, 504 h, time 21 day
NCI-H1048 [11] = experiment: Inhibition of cell invasion in human NCI-H1048 cells incubated for 24 hrs by transwell assay; type: functional, cell-based

Row | Compound | IC50 (NCI-H209) [µM] | IC50 (NCI-H146) [µM] | IC50 (NCI-H82) [µM] | IC50 (NCI-H1048 [4]) [µM] | IC50 (NCI-H446 [5]) [µM] | IC50 (SHP77) [µM] | IC50 at 72 h [1] [µM] | IC50 [2] [µM] | IC50 at 72 h [3] [µM] | Activity (NCI-H446 [6]) | inhibition (NCI-H446 [7]) | Activity (NCI-H1048 [8]) | inhibition in vivo at 20 mg/kg (NCI-H446 [9]) [%] | Activity [10] | inhibition (NCI-H1048 [11])
1 | c1c(CN2CCCC2)c(-c2cc3ccc4c(c3cn2)OCO4)cc2c1OCO2 | 81.2 | 42.6 | 59.7 | 25.3 | 39.8 | 28.8 | 33.6 | 34.3 | 29 |  |  |  |  |  | 
2 | FC(F)(F)C1CCN(Cc2cc3c(cc2-c2cc4ccc5c(c4cn2)OCO5)OCO3)CC1 | > 100 | 39.8 | > 100 | > 100 | 15.5 | 25.4 | 56.3 | 34.5 | > 100 |  |  |  |  |  | 
3 | c1c(CN2CCC(C3CC3)CC2)c(-c2cc3ccc4c(c3cn2)OCO4)cc2c1OCO2 | > 100 | 37.8 | > 100 | > 100 | 15.5 | > 100 | 83.6 | > 100 | > 100 |  |  |  |  |  | 
4 | ClC1CCN(Cc2cc3c(cc2-c2cc4ccc5c(c4cn2)OCO5)OCO3)CC1 | > 100 | > 100 | > 100 | > 100 | 38.2 | > 100 | > 100 | 62.4 | > 100 |  |  |  |  |  | 
5 | CCC(=O)C1CCN(Cc2cc3c(cc2-c2cc4ccc5c(c4cn2)OCO5)OCO3)CC1 | > 100 | 42.6 | 48.8 | > 100 | 21.2 | 26.5 | 41.7 | 34.5 | > 100 |  |  |  |  |  | 
6 | CC(C)(C)C(=O)C1CCN(Cc2cc3c(cc2-c2cc4ccc5c(c4cn2)OCO5)OCO3)CC1 | > 100 | > 100 | > 100 | > 100 | 24.5 | > 100 | > 100 | > 100 | > 100 |  |  |  |  |  | 
7 | OCC1CN(Cc2cc3c(cc2-c2cc4ccc5c(c4cn2)OCO5)OCO3)C1 | 79.5 | > 100 | 80.3 | 61.4 | 60.7 | 63.4 | > 100 | 42.5 | 23 |  |  |  |  |  | 
8 | COc1cc([C@@H]2c3cc4c(cc3[C@@H](O[C@@H]3O[C@@H]5CO[C@@H](C)O[C@H]5[C@H](O)[C@H]3O)[C@H]3COC(=O)[C@H]23)OCO4)cc(OC)c1O [ETOPOSIDE] | > 100 | 10.6 | 8.39 | 1.52 | 2.1 | 26.3 | 15.9 | 24.1 | 6.19 | Not active; Exhibited Minimal Impact | Dose-dependent-effect | Not active; Exhibited Minimal Impact | 68.7 | Toxic | Dose-dependent-effect

Now those with a lower IC50 (NCI-H209), led by results:

Row | IC50 (NCI-H209) [µM] | IC50 (NCI-H146) [µM] | IC50 (NCI-H82) [µM] | IC50 (NCI-H1048 [4]) [µM] | IC50 (NCI-H446 [5]) [µM] | Compound | IC50 (SHP77) [µM] | IC50 at 72 h [1] [µM] | IC50 [2] [µM] | IC50 at 72 h [3] [µM] | Activity (NCI-H446 [6]) | inhibition (NCI-H446 [7]) | Activity (NCI-H1048 [8]) | inhibition in vivo at 20 mg/kg (NCI-H446 [9]) [%] | Activity [10] | inhibition (NCI-H1048 [11])
9 | 68.5 | 21.1 | 41.1 | 24.4 | 19.5 | OCCCC1CCN(Cc2cc3c(cc2-c2cc4ccc5c(c4cn2)OCO5)OCO3)CC1 | 26.3 | 52.2 | 28.2 | 24.8 |  |  |  |  |  | 
10 | 56.6 | 17.1 | 61.5 | 34.6 | 68.4 | OCC1CCN(Cc2cc3c(cc2-c2cc4ccc5c(c4cn2)OCO5)OCO3)C1 (stereo not drawn) | 32.9 | 43.2 | 36 | 26.2 |  |  |  |  |  | 
11 | 55.8 | 44.1 | 25.7 | 12.3 | 42.7 | CC1CCN(Cc2cc3c(cc2-c2cc4ccc5c(c4cn2)OCO5)OCO3)CC1 | 31.1 | 34.9 | 26.3 | 23.7 |  |  |  |  |  | 
12 | 50.2 | > 100 | 58.1 | 30.5 | 24.4 | c1c(CN2CC3(CCC3)C2)c(-c2cc3ccc4c(c3cn2)OCO4)cc2c1OCO2 | 37.6 | > 100 | 30.9 | 30.4 |  |  |  |  |  | 
13 | 49.6 | 39 | 38.6 | 16.7 | 14.4 | CC1CCCCN1Cc1cc2c(cc1-c1cc3ccc4c(c3cn1)OCO4)OCO2 (stereo not drawn) | 40.4 | 42.4 | 37.5 | 19.4 |  |  |  |  |  | 
14 | 40.6 | 31.4 | 29.8 | 10 | 23.1 | CC1CCCN(Cc2cc3c(cc2-c2cc4ccc5c(c4cn2)OCO5)OCO3)C1 (stereo not drawn) | 17.9 | 43 | 27.4 | 14.3 |  |  |  |  |  | 
15 | 34.2 | 28.7 | 26.6 | 19.9 | 18.6 | c1c(CN2CC3(CCCC3)C2)c(-c2cc3ccc4c(c3cn2)OCO4)cc2c1OCO2 | 31.2 | > 100 | 15.9 | 14.8 |  |  |  |  |  | 
16 | 31.8 | 15.5 | 12.4 | 12.9 | 13.8 | c1c(CN2CC3(CCCCC3)C2)c(-c2cc3ccc4c(c3cn2)OCO4)cc2c1OCO2 | 23.6 | 41.5 | 30.6 | 12.6 |  |  |  |  |  | 
17 | 30.7 | 14 | 15 | 7.22 | 12.5 | c1c(CN2CCCCCCCC2)c(-c2cc3ccc4c(c3cn2)OCO4)cc2c1OCO2 | 16.3 | 24.8 | 13.9 | 17 |  |  |  |  |  | 
18 | 6.92 | < 6.25 | 1.7 | 2.21 | 2.65 | CC(C)C1CCN(Cc2cc3c(cc2-c2cc4ccc5c(c4cn2)OCO5)OCO3)CC1 | 8.17 | 18.2 | 14.5 | > 100 |  |  |  |  |  | 
